Assay results taken from patent US20120129875A1, “SUBSTITUTED QUINAZOLINES AS FUNGICIDES” (SYNGENTA CROP PROTECTION, LLC, priority 2009, published 2012).

Tested on: Phaeosphaeria nodorum (Septoria nodorum)
Assay: Phaeosphaeria nodorum (Septoria nodorum) / wheat / leaf disc preventative (glume blotch)
Type: in vivo
Details: Parastagonospora nodorum, foliar, wheat leaf segments cv. Kanzler on agar, inoculated 2 days after application, vs untreated control, read-out: disease control
Method: Phaeosphaeria nodorum (Septoria nodorum)/Wheat/Leaf Disc Preventative (Glume Blotch) Wheat leaf segments cv. Kanzler are placed on agar in a multiwell plate (24-well format) and sprayed with the formulated test compound diluted in water. The leaf disks are inoculated with a spore suspension of the fungus 2 days after application. The inoculated test leaf disks are incubated at 20° C. and 75% rh under a light regime of 12 h light/12 h darkness in a climate cabinet and the activity of a compound is assessed as percent disease control compared to untreated when an appropriate level of disease damage appears in untreated check leaf disks (5-7 days after application).

Row | Compound | pest or weed control at 200 ppm
1 | Clc1cccc(-c2cccc(-c3ncc4ccccc4n3)n2)c1Cl [2/50] | ≥ 80%
2 | COc1ccc(-c2cccc(-c3ncc4ccccc4n3)n2)cc1F [2/57] | ≥ 80%
3 | N#Cc1ccccc1-c1cccc(-c2ncc3ccccc3n2)n1 [2/61] | ≥ 80%
4 | Fc1cccc(F)c1-c1cccc(-c2ncc3ccccc3n2)n1 [2/104] | ≥ 80%
5 | CC(=O)c1ccccc1-c1cccc(-c2ncc3ccccc3n2)n1 [2/105] | ≥ 80%
6 | Cc1ccc(-c2cccc(-c3ncc4ccccc4n3)n2)c2ccccc12 [2/108] | ≥ 80%
7 | O=Cc1c(F)ccc(-c2cccc(-c3ncc4ccccc4n3)n2)c1F [2/110] | ≥ 80%
8 | O=Cc1ccc(-c2cccc(-c3ncc4ccccc4n3)n2)c(F)c1F [2/111] | ≥ 80%
9 | O=[N+]([O-])c1ccccc1-c1cccc(-c2ncc3ccccc3n2)n1 [2/112] | ≥ 80%
10 | COc1cccc(OC)c1-c1cccc(-c2ncc3ccccc3n2)n1 [2/113] | ≥ 80%
11 | OCc1c(-c2cccc(-c3ncc4ccccc4n3)n2)ccc2ccccc12 [2/115] | ≥ 80%
12 | OCc1cc2ccccc2cc1-c1cccc(-c2ncc3ccccc3n2)n1 [2/116] | ≥ 80%
13 | OCc1cc(F)ccc1-c1cccc(-c2ncc3ccccc3n2)n1 [2/117] | ≥ 80%
14 | c1cc(-c2ncc3ccccc3n2)nc(-c2cc3ccccc3c3ccccc23)c1 [2/119] | ≥ 80%
15 | COc1cc(-c2cccc(-c3ncc4ccccc4n3)n2)c(OC)cc1C [2/121] | ≥ 80%
16 | Cc1c(F)cccc1-c1cccc(-c2ncc3ccccc3n2)n1 [2/124] | ≥ 80%
17 | COc1ccc(C=O)cc1-c1cccc(-c2ncc3ccccc3n2)n1 [2/125] | ≥ 80%
18 | Cc1c(Cl)cccc1-c1cccc(-c2ncc3ccccc3n2)n1 [2/126] | ≥ 80%
19 | COc1cc(F)c(F)cc1-c1cccc(-c2ncc3ccccc3n2)n1 [2/128] | ≥ 80%
20 | COC(=O)c1ccccc1-c1cccc(-c2ncc3ccccc3n2)n1 [2/130] | ≥ 80%
21 | COc1cc(F)c(-c2cccc(-c3ncc4ccccc4n3)n2)c(F)c1 [2/131] | ≥ 80%
22 | Fc1cc(F)c(-c2cccc(-c3ncc4ccccc4n3)n2)c(F)c1 [2/132] | ≥ 80%
23 | Cc1cc(-c2cccc(-c3ncc4ccccc4n3)n2)c(C)cc1F [2/133] | ≥ 80%

Row | Compound | pest or weed control at 200 ppm
24 | Cc1ccc(-c2ncc3ccccc3n2)nc1-c1ccccc1N [3/102] | ≥ 80%
25 | COC(=O)c1ccc(-c2nc(-c3ncc4ccccc4n3)ccc2C)cc1 [3/103] | ≥ 80%
26 | Cc1ccc(-c2ncc3ccccc3n2)nc1-c1cccc([N+](=O)[O-])c1 [3/104] | ≥ 80%
27 | Cc1ccc(-c2ncc3ccccc3n2)nc1-c1c(F)cccc1F [3/105] | ≥ 80%
28 | Cc1ccc(-c2ncc3ccccc3n2)nc1-c1ccc2ccccc2c1 [3/106] | ≥ 80%
29 | CCOc1ccc(-c2nc(-c3ncc4ccccc4n3)ccc2C)cc1 [3/107] | ≥ 80%
30 | CC(=O)c1ccccc1-c1nc(-c2ncc3ccccc3n2)ccc1C [3/108] | ≥ 80%
31 | Cc1ccc(-c2ncc3ccccc3n2)nc1-c1cccc(Cl)c1 [3/109] | ≥ 80%
32 | COc1cc(-c2nc(-c3ncc4ccccc4n3)ccc2C)cc(OC)c1OC [3/110] | ≥ 80%
33 | CCCc1ccc(-c2nc(-c3ncc4ccccc4n3)ccc2C)cc1 [3/114] | ≥ 80%
34 | CC(=O)c1ccc(-c2nc(-c3ncc4ccccc4n3)ccc2C)cc1 [3/118] | ≥ 80%
35 | Cc1ccc(-c2nc(-c3ncc4ccccc4n3)ccc2C)cc1[N+](=O)[O-] [3/120] | ≥ 80%
36 | COC(=O)c1cccc(-c2nc(-c3ncc4ccccc4n3)ccc2C)c1 [3/123] | ≥ 80%
37 | CSc1cccc(-c2nc(-c3ncc4ccccc4n3)ccc2C)c1 [3/125] | ≥ 80%
38 | Cc1ccc(-c2ncc3ccccc3n2)nc1-c1ccc(CC#N)cc1 [3/126] | ≥ 80%
39 | COC(=O)c1ccccc1-c1nc(-c2ncc3ccccc3n2)ccc1C [3/128] | ≥ 80%
40 | Cc1ccc(-c2ncc3ccccc3n2)nc1-c1ccc(Cl)cc1C(F)(F)F [3/129] | ≥ 80%
41 | CCc1ccc(-c2nc(-c3ncc4ccccc4n3)ccc2C)cc1 [3/131] | ≥ 80%
42 | Cc1ccc(-c2ncc3ccccc3n2)nc1-c1cccc(C#N)c1 [3/132] | ≥ 80%
43 | CC(=O)c1cccc(-c2nc(-c3ncc4ccccc4n3)ccc2C)c1 [3/133] | ≥ 80%
44 | Cc1ccc(-c2ncc3ccccc3n2)nc1-c1cccc(-c2ccccc2)c1 [3/134] | ≥ 80%
45 | COc1cccc(OC)c1-c1nc(-c2ncc3ccccc3n2)ccc1C [3/135] | ≥ 80%
46 | COc1cc(F)c(F)cc1-c1nc(-c2ncc3ccccc3n2)ccc1C [3/137] | ≥ 80%

Row | Compound | pest or weed control at 200 ppm
47 | Cc1ccc(-c2ncc3ccccc3n2)nc1-c1ccc(Cl)c(F)c1Cl [3/138] | ≥ 80%
48 | Cc1ccc(-c2ncc3ccccc3n2)nc1-c1ccc(CO)cc1 [3/139] | ≥ 80%
49 | CCOCc1ccc(-c2nc(-c3ncc4ccccc4n3)ccc2C)cc1 [3/142] | ≥ 80%
50 | c1ccc(Oc2cccc(-c3ncc4ccccc4n3)n2)cc1 [4/24] | ≥ 80%
51 | Fc1ccc(Cc2cccc(-c3ncc4ccccc4n3)n2)c(Cl)c1 [6/20] | ≥ 80%
52 | c1ccc(-c2ccccc2Cc2cccc(-c3ncc4ccccc4n3)n2)cc1 [6/21] | ≥ 80%
53 | Fc1c(Cl)cccc1Cc1cccc(-c2ncc3ccccc3n2)n1 [6/22] | ≥ 80%
54 | COc1ccc(Cc2cccc(-c3ncc4ccccc4n3)n2)c(Cl)c1Cl [6/23] | ≥ 80%
55 | Fc1ccc(Cc2cccc(-c3ncc4ccccc4n3)n2)cc1F [6/24] | ≥ 80%
56 | Fc1cccc(F)c1Cc1cccc(-c2ncc3ccccc3n2)n1 [6/26] | ≥ 80%
57 | Clc1ccc(Cc2cccc(-c3ncc4ccccc4n3)n2)cc1Cl [6/27] | ≥ 80%
58 | Fc1ccc(Cc2cccc(-c3ncc4ccccc4n3)n2)c(F)c1F [6/28] | ≥ 80%
59 | Fc1cc(F)c(F)c(Cc2cccc(-c3ncc4ccccc4n3)n2)c1 [6/29] | ≥ 80%
60 | COc1cccc(Cc2cccc(-c3ncc4ccccc4n3)n2)c1OC [6/30] | ≥ 80%
61 | N#Cc1ccc(Cc2cccc(-c3ncc4ccccc4n3)n2)cc1 [6/31] | ≥ 80%
62 | N#Cc1ccccc1Cc1cccc(-c2ncc3ccccc3n2)n1 [6/32] | ≥ 80%
63 | N#Cc1c(Cl)cccc1Cc1cccc(-c2ncc3ccccc3n2)n1 [6/33] | ≥ 80%
64 | Fc1ccc(Br)c(Cc2cccc(-c3ncc4ccccc4n3)n2)c1 [6/34] | ≥ 80%
65 | Fc1cc(Br)ccc1Cc1cncc(-c2ncc3ccccc3n2)c1 [6/35] | ≥ 80%
66 | Clc1ccc(Cc2cccc(-c3ncc4ccccc4n3)n2)c(Cl)c1 [6/37] | ≥ 80%
67 | Cc1ccc(Cc2cccc(-c3ncc4ccccc4n3)n2)c(C)c1 [6/38] | ≥ 80%
68 | COC(=O)Nc1ccc(Cc2cccc(-c3ncc4ccccc4n3)n2)cc1 [6/39] | ≥ 80%
69 | Cc1cc(C)c(Cc2cccc(-c3ncc4ccccc4n3)n2)c(C)c1 [6/40] | ≥ 80%

Row | Compound | pest or weed control at 200 ppm
70 | Cc1ccc(C)c(Cc2cccc(-c3ncc4ccccc4n3)n2)c1 [6/41] | ≥ 80%
71 | Cc1ccc(Cc2cccc(-c3ncc4ccccc4n3)n2)cc1Cl [6/42] | ≥ 80%
72 | COc1ccc(OC)c(Cc2cccc(-c3ncc4ccccc4n3)n2)c1 [6/43] | ≥ 80%
73 | Cc1ccccc1Cc1nc(-c2ncc3ccccc3n2)ccc1C [7/20] | ≥ 80%
74 | COc1ccccc1Cc1nc(-c2ncc3ccccc3n2)ccc1C [7/21] | ≥ 80%
75 | c1ccc(CCc2cccc(-c3ncc4ccccc4n3)n2)cc1 [10/17] | ≥ 80%
76 | C(=C\c1cccc(-c2ncc3ccccc3n2)n1)/c1ccccc1 [10/20] | ≥ 80%
77 | C(=C/c1cccc(-c2ncc3ccccc3n2)n1)/c1ccccc1 [10/21] | ≥ 80%
78 | Cc1ccc(-c2ncc3ccccc3n2)nc1/C=C\c1ccccc1 [10/22] | ≥ 80%
79 | Cc1ccc(-c2ncc3ccccc3n2)nc1/C=C/c1ccccc1 [10/23] | ≥ 80%
80 | Cc1ccc(-c2ncc3ccc(Cl)cc3n2)nc1-c1ccccc1 [11/11] | ≥ 80%
81 | Cc1ccc2cnc(-c3ccc(C)c(-c4ccccc4)n3)nc2c1 [11/12] | ≥ 80%
82 | Cc1ccc(-c2ncc3cccc(Cl)c3n2)nc1-c1ccccc1 [11/13] | ≥ 80%
83 | Cc1ccc(-c2nc(C)c3cccc(Cl)c3n2)nc1-c1ccccc1 [11/14] | ≥ 80%
84 | Cc1ccc(-c2ncc3cccc(C)c3n2)nc1-c1ccccc1 [11/15] | ≥ 80%
85 | Cc1ccc(-c2nc(C)c3cccc(C)c3n2)nc1-c1ccccc1 [11/16] | ≥ 80%
86 | Cc1ccc(-c2ncc3c(C)cccc3n2)nc1-c1ccccc1 [11/18] | ≥ 80%
87 | COc1ccc2nc(-c3ccc(C)c(-c4ccccc4)n3)ncc2c1 [11/19] | ≥ 80%
88 | COc1ccc2nc(-c3ccc(C)c(-c4ccccc4)n3)nc(C)c2c1 [11/20] | ≥ 80%
89 | Cc1ccc(-c2nc(C)c3c(C)cccc3n2)nc1-c1ccccc1 [11/21] | ≥ 80%
90 | CCCCc1nc(-c2cccc(Cc3ccccc3)n2)nc2ccccc12 [12/5] | ≥ 80%
